Data published in PubChem BioAssay (NCI).
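Protocol summary: plate cells (96-well), add compound at 5 concentrations, incubate 48 h, interpolate endpoints linearly. Here, GI50 denotes the concentration required for 50% inhibition of growth. TGI is the concentration that stops growth completely.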

Assays:
Experiment in all cases: growth of human tumour cells (NCI), 48 h
SNB-19 CNS = system: SNB-19 CNS
NCI-H23 lung = system: NCI-H23 lung
786-0 renal = system: 786-0 renal
UACC-257 melanoma = system: UACC-257 melanoma
UACC-62 melanoma = system: UACC-62 melanoma
SK-MEL-5 melanoma = system: SK-MEL-5 melanoma
MDA-N = system: MDA-N
NCI-H226 lung = system: NCI-H226 lung
M14 melanoma = system: M14 melanoma
DMS 273 small cell lung = system: DMS 273 small cell lung
DMS 114 small cell lung = system: DMS 114 small cell lung
KM20L2 colon = system: KM20L2 colon
HOP-18 NSCLC = system: HOP-18 NSCLC

| SMILES | TGI (SNB-19 CNS) [µM] | TGI (NCI-H23 lung) [µM] | TGI (786-0 renal) [µM] | TGI (UACC-257 melanoma) [µM] | TGI (UACC-62 melanoma) [µM] | TGI (SK-MEL-5 melanoma) [µM] | TGI (MDA-N) [µM] | TGI (NCI-H226 lung) [µM] | TGI (M14 melanoma) [µM] | GI50 (SNB-19 CNS) [µM] | GI50 (NCI-H23 lung) [µM] | GI50 (NCI-H226 lung) [µM] | GI50 (UACC-257 melanoma) [µM] | GI50 (UACC-62 melanoma) [µM] | GI50 (SK-MEL-5 melanoma) [µM] | GI50 (M14 melanoma) [µM] | TGI (DMS 273 small cell lung) [µM] | TGI (DMS 114 small cell lung) [µM] | TGI (KM20L2 colon) [µM] | TGI (HOP-18 NSCLC) [µM] |
| --- | --- | --- | --- | --- | --- | --- | --- | --- | --- | --- | --- | --- | --- | --- | --- | --- | --- | --- | --- | --- |
| Cc1c2ccccc2cc2cccc[n+]12 | > 100 | 65.5 | > 100 | 43.3 | > 100 | 92.3 | > 100 |  |  |  |  |  |  |  |  |  |  |  |  |  |
| COc1cc2cc[n+](C)c(Cc3ccc(Oc4cc(Cc5c6cc(OC)c(OC)cc6cc[n+]5C)ccc4OC)cc3)c2cc1OC | > 100 | > 100 | > 100 | > 100 | > 100 | > 100 | > 100 | > 100 | > 100 |  |  |  |  |  |  |  |  |  |  |  |
| Oc1ccc(Cl)cc1C1=Nn2c(COc3ccc4c(c3)CCCC4)nnc2SC1 | 50.5 | 26.9 |  | 35.6 | 25.4 | 19 | 30.2 |  | 29.5 |  |  |  |  |  |  |  |  |  |  |  |
| CC(NC(=O)c1ccc(OP(=O)(OCc2ccc([N+](=O)[O-])o2)N(C)CCCCCl)cc1)c1ccc(OCC2CCCCC2)c(C(N)=O)c1 (stereo not drawn) | > 100 | > 52.2 | > 37.2 | > 39.8 | 7.39 | 6.14 | 24 | 26.2 | 22.7 |  |  |  |  |  |  |  |  |  |  |  |
| COc1ccc(-n2nc(C(=O)c3ccccc3)c3nn4c(=O)cc(-c5ccccc5)nc4nc32)cc1 | > 100 | > 100 |  | > 100 | 97.6 | > 100 |  | > 100 | > 100 | 69.1 | 67.2 | 98.1 | 42.6 | 28.4 | 41.7 | 30.3 |  |  |  |  |
| CN(CCN1C(=O)c2cccc3cccc(c23)C1=O)CCN1C(=O)c2cccc3cccc(c23)C1=O | 16.8 | 43.7 | 27.5 | > 100 | > 100 | > 100 |  | 75.2 | > 100 |  |  |  |  |  |  |  |  |  |  |  |
| C#C[C@]1(O)[C@@H](CO)O[C@@H](n2ccc(=O)[nH]c2=O)[C@@H]1O | > 62.1 | 7.37 |  | > 84.5 | 3.56 | 13 | 1.71 | 2.66 | 6.77 |  |  |  |  |  |  |  |  |  |  |  |
| O=C1/C(=C/c2ccc([N+](=O)[O-])cc2)Sc2scc(-c3cccc([N+](=O)[O-])c3)[n+]21 | 31.5 | 42 | 4.96 | 18.4 | 29.9 | 18.6 | 15.7 | 29.9 | 17.5 |  |  |  |  |  |  |  |  |  |  |  |
| C=C(CN(C)C)C(=O)c1ccccc1Cl | > 100 | 54.6 | 34.3 | 37.5 | 34.2 | 57.8 |  | > 100 | 33.3 |  |  |  |  |  |  |  | 36.8 | 29.4 | > 60.4 | 33.7 |
| OC1CCSc2ccccc21 (stereo not drawn) | > 100 | > 100 |  |  | > 100 | > 100 |  | > 100 | > 100 |  |  |  |  |  |  |  | > 100 | > 100 | > 100 | > 100 |
| COc1ccc2c3c([nH]c2c1)[C@H](C=C(C)C)N1C(=O)[C@@H]2CCCN2C(=O)[C@@H]1C3 | > 100 | > 100 | > 100 | > 100 | > 100 |  |  | > 100 | > 100 |  |  |  |  |  |  |  |  |  |  |  |
| CC(C)C(=O)CC(c1ccc(Br)cc1)N1N=C(C(C)C)CC1c1ccc(Br)cc1 (stereo not drawn) | > 100 | > 100 |  |  |  |  |  | > 100 | > 100 |  |  |  |  |  |  |  | > 100 | > 100 | > 100 | > 100 |
| CN(CCc1ccccn1)c1ccc2c(c1)Cc1ccccc1-2 | 58 | > 100 | > 100 | 92.2 | > 100 | 31.3 |  | 40.5 | 94.3 |  |  |  |  |  |  |  |  |  |  |  |
| Fc1c(F)c(F)c(CSc2nc3ccccc3[nH]2)c(F)c1F | > 100 | > 100 |  | > 100 | > 100 | > 100 | > 100 | > 100 | > 100 |  |  |  |  |  |  |  |  |  |  |  |
| CC1(C)CC(C(=O)OCCCCCCCCCCC[P+](c2ccccc2)(c2ccccc2)c2ccccc2)C(C)(C)N1O (stereo not drawn) | 1.24 | 1.68 |  | 0.847 | 1.24 | 0.299 |  |  | 1.08 | 0.263 | 0.271 |  | 0.248 | 0.253 | 0.15 | 0.302 |  |  |  |  |
| CC(C)(C)COS(=O)OCC(C)(C)C | > 100 | > 100 | > 100 | > 100 | > 100 | > 100 | > 100 | > 100 | > 100 |  |  |  |  |  |  |  |  |  |  |  |
| O=C1CNc2cc(N3CCCCC3)ccc2N1 | > 100 | > 100 |  | > 100 | > 100 | > 100 | > 100 | 37.3 | > 100 |  |  |  |  |  |  |  |  |  |  |  |
| NC(N)=N/N=C/c1c(-c2cccs2)nc2n1CCS2 | 57.8 |  |  | 44.8 | 26.4 | 29.1 |  | 31.8 |  | 22 |  | 15.9 | 22.3 | 13.5 | 15.6 |  |  |  |  |  |
| Cc1ccc(S(=O)(=O)Nc2cc(=O)[nH]c3c2CCC3)cc1 | > 100 | > 100 | > 100 | > 100 | > 100 | > 100 | > 100 | > 100 | > 100 |  |  |  |  |  |  |  |  |  |  |  |
| CS(=O)(=O)Nc1cccc(-c2ccc3ncnc(Nc4cncc(Cl)c4)c3c2)c1 | > 100 | 16.9 |  | 4.82 | 3.86 | 3.74 |  | 8.23 |  | 3.84 | 2.51 | 2.21 | 2.08 | 1.75 | 1.75 |  |  |  |  |  |
| CC12OC(C(=O)C13CCC3)C1C(=O)c3c(O)ccc(O)c3C(=O)C12 (stereo not drawn) | > 50.5 | 2.15 |  | 7.81 | > 36.6 | 26.1 |  | > 100 | 2.04 | 14.7 | 0.577 | > 100 | 1.53 | 3.56 | 11 | 0.669 |  |  |  |  |
